Laboratory results from patent publication US12497411B2, “Muscarinic acetylcholine receptor subtype 4 antagonists in the treatment of anemia” (COLD SPRING HARBOR LABORATORY, priority 2019, dated 2025).

What was measured:
[1] = target: T1, CHRM4 (Homo sapiens, UniProt P08173); experiment: Radioligand binding assay, CHRM4; set-up: expressed in transfected cells; host or cells: CHO cells (membranes); conditions: [3H]4-DAMP (0.2 nM), CHO cell membranes, 60 minutes at room temperature; read-out: Ki M4
T1 sequence (P08173 1-479): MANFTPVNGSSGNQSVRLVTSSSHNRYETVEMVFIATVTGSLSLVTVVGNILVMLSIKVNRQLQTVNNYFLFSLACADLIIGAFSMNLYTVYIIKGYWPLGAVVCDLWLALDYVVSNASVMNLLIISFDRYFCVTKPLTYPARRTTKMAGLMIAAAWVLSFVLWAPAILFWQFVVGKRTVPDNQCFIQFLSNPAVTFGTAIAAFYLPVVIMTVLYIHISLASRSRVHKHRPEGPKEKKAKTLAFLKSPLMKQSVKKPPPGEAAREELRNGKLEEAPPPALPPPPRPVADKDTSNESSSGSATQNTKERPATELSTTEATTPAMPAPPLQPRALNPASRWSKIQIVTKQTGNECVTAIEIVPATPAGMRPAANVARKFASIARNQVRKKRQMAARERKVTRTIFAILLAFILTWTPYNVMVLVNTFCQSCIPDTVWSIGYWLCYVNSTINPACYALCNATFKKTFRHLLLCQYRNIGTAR
Procedure: (§1) PD102807 and Compounds A-K at concentrations of 1×10^−9 M, 1×10^−8 M, 1×10^−7 M, 1×10^−6 M, and 1×10^−5 M were tested in standard binding assays with radioligands and cell membranes with receptors. Compound binding was calculated as a percent inhibition of the binding of a radioactively labeled ligand specific for each target, and the Ki values were determined. For CHRM1, the binding assay was performed using [^3H]pirenzepine (2 nM) as a radioligand and membranes of CHO cells with human recombinant CHRM1 receptor. The incubation time was 60 minutes at room temperature. For CHRM2, the binding assay was performed using [^3H]AF-DX 384 (2 nM) as a radioligand and membranes of CHO cells with human recombinant CHRM2 receptor. The incubation time was also 60 minutes at room temperature. For CHRM3, the binding assay was performed using [^3H]4-DAMP (0.2 nM) as a radioligand and membranes of CHO cells with human recombinant CHRM3 receptor. The incubation time was also 60 minutes at room temperature. For CHRM4, the binding assay was performed using [^3H]4-DAMP (0.2 nM) as a radioligand and membranes of CHO cells with human recombinant CHRM4 receptor. The incubation time was also 60 minutes at room temperature. For CHRM5, the binding assay was performed using [^3H]4-DAMP (0.3 nM) as a radioligand and membranes of CHO cells with human recombinant CHRM5 receptor. The incubation time was also 60 minutes at room temperature.

[2] = tested on: PHZ induced hemolytic anemia in C57bl/6 mice; experiment: PHZ induced hemolytic anemia mouse model, CBC; type: in vivo; conditions: 60 mg/kg phenylhydrazine
Procedure: Animal experiments were conducted in the Cold Spring Harbor Laboratory Animal Shared Resource in accordance with Institutional Animal Care and Use Committee-approved procedures. 4-6 weeks old C57bl/6 mice, purchased from Jackson Laboratory and randomly distributed into compound and control treatment groups, were given through oral delivery of PCS1055 (50 mg/kg or 100 mg/kg) twice per day or PD102807 (50 mg/kg or 100 mg/kg) once per day everyday for 3 days. On day 3, mice were intraperitoneally injected with 60 mg/kg PHZ. Mice were then given through oral delivery of PD102807 (50 mg/kg or 100 mg/kg) once per day every day for 2 days. Peripheral blood samples were collected retro-orbitally on day 6 using heparinized capillary tubes in blood collection tubes with K2-EDTA. CBC was performed using Hemavet 950. […] C57bl/6 mice were injected with 60 mg/kg phenylhydrazine to induce hemolysis. Mice were delivered with either vehicle control or Compound A or B (30 mg/kg or 100 mg/kg). Peripheral blood samples were collected retro-orbitally using heparinized capillary tubes into blood collection tubes with K2-EDTA. Complete blood counting was performed using Hemavet 950. Hematocrit (HCT), red blood cell (RBC) and hemoglobin (Hb) values are shown. […] C57bl/6 mice were injected with 60 mg/kg phenylhydrazine to induce hemolysis. Mice were delivered with subcutaneous injection with either vehicle control or Compound B (1.5 mg/kg, 3 mg/kg, or 5 mg/kg) or I (0.5 mg/kg, 0.7 mg/kg, or 1 mg/kg). Peripheral blood samples were collected retro-orbitally using heparinized capillary tubes into blood collection tubes with K2-EDTA. Complete blood counting was performed using Hemavet 950. Hematocrit (HCT), red blood cell (RBC) and hemoglobin (Hb) values are shown.

[3] = target: T2, human recombinant CHRM2 receptor (Homo sapiens, UniProt P08172); experiment: Radioligand binding assay, CHRM2; conditions: [3H]AF-DX 384 (2 nM), CHO cell membranes, 60 minutes at room temperature; read-out: Ki M2
T2 construct: expressed in transfected cells; host or cells: CHO cells (membranes)
T2 sequence (P08172 1-466): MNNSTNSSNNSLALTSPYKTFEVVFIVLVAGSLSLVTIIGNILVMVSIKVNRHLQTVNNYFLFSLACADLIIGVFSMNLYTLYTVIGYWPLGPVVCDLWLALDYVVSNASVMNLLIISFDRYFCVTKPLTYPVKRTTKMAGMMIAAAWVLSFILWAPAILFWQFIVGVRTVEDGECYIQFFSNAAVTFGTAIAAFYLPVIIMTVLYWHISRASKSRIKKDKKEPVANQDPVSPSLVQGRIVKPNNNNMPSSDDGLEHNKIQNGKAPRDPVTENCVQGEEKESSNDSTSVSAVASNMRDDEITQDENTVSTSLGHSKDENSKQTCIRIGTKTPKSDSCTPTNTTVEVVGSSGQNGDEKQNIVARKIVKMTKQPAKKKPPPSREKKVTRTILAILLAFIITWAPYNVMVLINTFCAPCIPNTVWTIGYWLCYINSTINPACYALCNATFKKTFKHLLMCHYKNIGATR
Procedure: as §1

[4] = target: T3, human recombinant CHRM5 receptor (Homo sapiens, UniProt P08912); experiment: Radioligand binding assay, CHRM5; conditions: [3H]4-DAMP (0.3 nM), CHO cell membranes, 60 minutes at room temperature; read-out: Ki M5
T3 construct: expressed in transfected cells; host or cells: CHO cells (membranes)
T3 sequence (P08912 1-532): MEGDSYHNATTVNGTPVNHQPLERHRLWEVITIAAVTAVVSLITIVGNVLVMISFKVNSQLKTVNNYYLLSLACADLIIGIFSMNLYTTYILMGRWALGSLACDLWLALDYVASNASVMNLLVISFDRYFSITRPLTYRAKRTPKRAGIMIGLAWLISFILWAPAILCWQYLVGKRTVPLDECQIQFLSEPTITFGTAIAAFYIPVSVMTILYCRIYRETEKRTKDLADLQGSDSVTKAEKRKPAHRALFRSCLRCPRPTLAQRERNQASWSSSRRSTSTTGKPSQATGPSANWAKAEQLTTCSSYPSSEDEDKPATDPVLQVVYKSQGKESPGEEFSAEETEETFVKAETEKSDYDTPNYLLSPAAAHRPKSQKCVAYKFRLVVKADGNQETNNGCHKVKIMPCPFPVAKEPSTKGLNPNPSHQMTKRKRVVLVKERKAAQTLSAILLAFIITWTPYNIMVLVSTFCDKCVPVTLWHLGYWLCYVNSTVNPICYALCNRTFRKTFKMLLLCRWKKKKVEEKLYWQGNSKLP
Procedure: as §1

[5] = target: T4, human recombinant CHRM1 receptor (Homo sapiens, UniProt P11229); experiment: Radioligand binding assay, CHRM1; conditions: [3H]pirenzepine (2 nM), CHO cell membranes, 60 minutes at room temperature; read-out: Ki M1
T4 construct: expressed in transfected cells; host or cells: CHO cells (membranes)
T4 sequence (P11229 1-460): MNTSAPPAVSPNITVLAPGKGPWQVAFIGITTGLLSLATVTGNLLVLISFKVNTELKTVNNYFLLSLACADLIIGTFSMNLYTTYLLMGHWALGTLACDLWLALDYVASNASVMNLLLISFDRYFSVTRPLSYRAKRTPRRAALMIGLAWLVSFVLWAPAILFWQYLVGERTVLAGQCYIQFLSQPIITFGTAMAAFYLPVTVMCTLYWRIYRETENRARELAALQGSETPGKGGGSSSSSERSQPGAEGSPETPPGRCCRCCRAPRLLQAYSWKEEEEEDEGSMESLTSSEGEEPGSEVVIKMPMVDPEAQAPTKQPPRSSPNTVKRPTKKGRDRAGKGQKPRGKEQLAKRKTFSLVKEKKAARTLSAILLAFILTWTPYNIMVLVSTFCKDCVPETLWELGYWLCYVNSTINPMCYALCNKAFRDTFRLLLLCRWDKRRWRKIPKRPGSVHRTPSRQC
Procedure: as §1

Compound	Ki [1]	treatment of anemia in vivo (HCT, RBC, Hb) ([2]; 30 mg/kg or 100 mg/kg, C57bl/6 mice)	Ki [3]	Ki [4]	treatment of anemia in vivo (HCT, RBC, Hb) ([2]; subcutaneous injection, B 1.5, 3 or 5 mg/kg, I 0.5, 0.7 or 1 mg/kg)	Ki [5]
CCOC(=O)c1c(C)[nH]c2ccc3c(c12)C[N+]1(C)CCc2cc(OC)ccc2C1O3 (single isomer, unassigned) [Compound A, 1-(ethoxycarbonyl)-9-methoxy-2,13-dimethyl-3,6a,11,12,13,14-hexahydroindolo[4′,5′:5,6][1,3]oxazino[2,3-a]isoquinolin-13-ium Iodide]	1800 nM	treat anemia in vivo	2200 nM	3500 nM	–	–
CCOC(=O)c1c(C)n(C)c2ccc3c(c12)C[N+]1(C)CCc2cc(OC)ccc2C1O3 (single isomer, unassigned) [Compound I, 1-(ethoxycarbonyl)-9-methoxy-2,3,13-trimethyl-3,6a,11,12,13,14-hexahydroindolo[4′,5′:5,6][1,3]oxazino[2,3-a]isoquinolin-13-ium Iodide]	740 nM	–	1700 nM	10000 nM	treat anemia in vivo	8500 nM
